In PubChem BioAssay (NCI):
Where “and” joins values, the source holds several entries; their conditions need not be identical. Equal entries are not always repeated.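 48-hour exposure; five concentrations; linearly interpolated endpoints. At the GI50, growth is halved. TGI marks complete inhibition of growth.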

Tests used:
Assay in all cases: NCI tumour cell line growth inhibition, 48 h
HOP-62 NSCLC = tested on: HOP-62 NSCLC
SW-620 colon = tested on: SW-620 colon
SK-OV-3 ovarian = tested on: SK-OV-3 ovarian
NCI-H522 lung = tested on: NCI-H522 lung
K-562 leukemia = tested on: K-562 leukemia
HCT-116 colon = tested on: HCT-116 colon
ACHN renal = tested on: ACHN renal
NCI-H226 lung = tested on: NCI-H226 lung
SK-MEL-2 melanoma = tested on: SK-MEL-2 melanoma
OVCAR-4 ovarian = tested on: OVCAR-4 ovarian
SNB-75 CNS = tested on: SNB-75 CNS
HL-60(TB) leukemia = tested on: HL-60(TB) leukemia
UO-31 renal = tested on: UO-31 renal
786-0 renal = tested on: 786-0 renal
SN12C renal = tested on: SN12C renal
OVCAR-8 ovarian = tested on: OVCAR-8 ovarian
XF 498 CNS = tested on: XF 498 CNS
LXFL 529 NSCLC = tested on: LXFL 529 NSCLC
A549 NSCLC = tested on: A549 NSCLC
TK-10 renal = tested on: TK-10 renal
HT29 colon = tested on: HT29 colon
U251 CNS = tested on: U251 CNS
M14 melanoma = tested on: M14 melanoma
OVCAR-5 ovarian = tested on: OVCAR-5 ovarian
IGROV1 ovarian = tested on: IGROV1 ovarian
SF-295 CNS = tested on: SF-295 CNS
CAKI-1 renal = tested on: CAKI-1 renal
SF-539 CNS = tested on: SF-539 CNS
HOP-18 NSCLC = tested on: HOP-18 NSCLC
EKVX NSCLC = tested on: EKVX NSCLC
SK-MEL-5 melanoma = tested on: SK-MEL-5 melanoma
COLO 205 colon = tested on: COLO 205 colon
CCRF-CEM leukemia = tested on: CCRF-CEM leukemia
RXF 393 renal = tested on: RXF 393 renal
HCT-15 colon = tested on: HCT-15 colon
KM20L2 colon = tested on: KM20L2 colon
SNB-19 CNS = tested on: SNB-19 CNS
HOP-92 NSCLC = tested on: HOP-92 NSCLC
OVCAR-3 ovarian = tested on: OVCAR-3 ovarian
SR leukemia = tested on: SR leukemia
UACC-257 melanoma = tested on: UACC-257 melanoma
RXF-631 renal = tested on: RXF-631 renal
A498 renal = tested on: A498 renal
UACC-62 melanoma = tested on: UACC-62 melanoma
LOX IMVI melanoma = tested on: LOX IMVI melanoma
NCI-H23 lung = tested on: NCI-H23 lung
DMS 273 small cell lung = tested on: DMS 273 small cell lung
SK-MEL-28 melanoma = tested on: SK-MEL-28 melanoma
DMS 114 small cell lung = tested on: DMS 114 small cell lung
SNB-78 CNS = tested on: SNB-78 CNS
M19-MEL melanoma = tested on: M19-MEL melanoma
MALME-3M melanoma = tested on: MALME-3M melanoma
DLD-1 colon = tested on: DLD-1 colon
KM12 colon = tested on: KM12 colon
HCC-2998 colon = tested on: HCC-2998 colon
NCI-H460 lung = tested on: NCI-H460 lung
MOLT-4 leukemia = tested on: MOLT-4 leukemia
RPMI-8226 leukemia = tested on: RPMI-8226 leukemia
SF-268 CNS = tested on: SF-268 CNS
MDA-N = tested on: MDA-N
P388/ADR leukemia = tested on: P388/ADR leukemia
T-47D breast = tested on: T-47D breast
MDA-MB-435 = tested on: MDA-MB-435
MDA-MB-231 breast = tested on: MDA-MB-231 breast
BT-549 breast = tested on: BT-549 breast

Structure (SMILES): O=C(CCc1nc(=S)[nH][nH]1)NC12CC3CC(CC(C3)C1)C2
- TGI (HOP-62 NSCLC): > 100 µM
- TGI (SW-620 colon): > 100 µM
- TGI (SK-OV-3 ovarian): > 100 µM
- TGI (NCI-H522 lung): > 100 µM
- TGI (K-562 leukemia): > 100 µM
- TGI (HCT-116 colon): > 100 µM
- TGI (ACHN renal): > 100 µM
- TGI (NCI-H226 lung): > 100 µM
- TGI (SK-MEL-2 melanoma): > 100 µM
- TGI (OVCAR-4 ovarian): > 100 µM
- TGI (SNB-75 CNS): > 100 µM
- TGI (HL-60(TB) leukemia): > 100 µM
- TGI (UO-31 renal): > 100 µM
- TGI (786-0 renal): > 100 µM
- TGI (SN12C renal): > 100 µM
- TGI (OVCAR-8 ovarian): > 100 µM
- TGI (XF 498 CNS): > 100 µM
- TGI (LXFL 529 NSCLC): > 100 µM
- TGI (A549 NSCLC): > 100 µM
- TGI (TK-10 renal): > 100 µM
- TGI (HT29 colon): > 100 µM
- TGI (U251 CNS): > 100 µM
- TGI (M14 melanoma): > 100 µM
- TGI (OVCAR-5 ovarian): > 100 µM
- TGI (IGROV1 ovarian): > 100 µM
- TGI (SF-295 CNS): > 100 µM
- TGI (CAKI-1 renal): > 100 µM
- TGI (SF-539 CNS): > 100 µM
- TGI (HOP-18 NSCLC): > 100 µM
- TGI (EKVX NSCLC): > 100 µM
- TGI (SK-MEL-5 melanoma): > 100 µM
- TGI (COLO 205 colon): > 100 µM
- TGI (CCRF-CEM leukemia): > 100 µM
- TGI (RXF 393 renal): > 100 µM
- TGI (HCT-15 colon): > 100 µM
- TGI (KM20L2 colon): > 100 µM
- TGI (SNB-19 CNS): > 100 µM
- TGI (HOP-92 NSCLC): > 100 µM
- TGI (OVCAR-3 ovarian): > 100 µM
- TGI (SR leukemia): > 100 µM
- TGI (UACC-257 melanoma): > 100 µM
- TGI (RXF-631 renal): > 100 µM
- TGI (A498 renal): > 100 µM
- TGI (UACC-62 melanoma): > 100 µM
- TGI (LOX IMVI melanoma): > 100 µM
- TGI (NCI-H23 lung): > 100 µM
- TGI (DMS 273 small cell lung): > 100 µM
- TGI (SK-MEL-28 melanoma): > 100 µM
- TGI (DMS 114 small cell lung): > 100 µM
- TGI (SNB-78 CNS): > 100 µM
- TGI (M19-MEL melanoma): > 100 µM
- TGI (MALME-3M melanoma): > 100 µM
- TGI (DLD-1 colon): > 100 µM
- TGI (KM12 colon): > 100 µM
- TGI (HCC-2998 colon): > 100 µM
- TGI (NCI-H460 lung): > 100 µM

Structure (SMILES): Cc1cc(O)c2c(c1)C(O)(c1ccc3c(c1O)C(=O)c1c(O)cc(C)cc1C3(O)C1OC(CO)C(O)C(O)C1O)c1cccc(O)c1C2=O (stereo not drawn)
- TGI (HOP-62 NSCLC): 28.9 µM
- TGI (SW-620 colon): 34 µM
- TGI (SK-OV-3 ovarian): 31.4 µM
- TGI (K-562 leukemia): 18.9 µM
- TGI (HCT-116 colon): 24.1 µM
- TGI (ACHN renal): 25.8 µM
- TGI (OVCAR-4 ovarian): 26.4 µM
- TGI (SNB-75 CNS): 27.5 µM
- TGI (HL-60(TB) leukemia): 46.8 µM
- TGI (MOLT-4 leukemia): 32.6 µM
- TGI (UO-31 renal): 32 µM
- TGI (786-0 renal): 29.2 µM
- TGI (OVCAR-8 ovarian): 34 µM
- TGI (XF 498 CNS): 16.7 µM
- TGI (LXFL 529 NSCLC): 24.5 µM
- TGI (A549 NSCLC): 32.2 µM
- TGI (TK-10 renal): 27.2 µM
- TGI (HT29 colon): 38.4 µM
- TGI (U251 CNS): 23.8 µM
- TGI (M14 melanoma): 30 µM
- TGI (OVCAR-5 ovarian): 32.3 µM
- TGI (IGROV1 ovarian): 28.1 µM
- TGI (SF-295 CNS): 24.9 µM
- TGI (CAKI-1 renal): 31.7 µM
- TGI (SF-539 CNS): 26.5 µM
- TGI (HOP-18 NSCLC): 8.38 µM
- TGI (EKVX NSCLC): 28.2 µM
- TGI (SK-MEL-5 melanoma): 33 µM
- TGI (CCRF-CEM leukemia): 25.8 µM
- TGI (RXF 393 renal): 24.7 µM
- TGI (HCT-15 colon): 26.1 µM
- TGI (KM20L2 colon): 36 µM
- TGI (SNB-19 CNS): 30.2 µM
- TGI (RPMI-8226 leukemia): > 100 µM
- TGI (HOP-92 NSCLC): 20.4 µM
- TGI (OVCAR-3 ovarian): 22.6 µM
- TGI (SR leukemia): 30.9 µM
- TGI (UACC-257 melanoma): 28.7 µM
- TGI (RXF-631 renal): 29.5 µM
- TGI (A498 renal): 26.5 µM
- TGI (UACC-62 melanoma): 25.3 µM
- TGI (LOX IMVI melanoma): 28 µM
- TGI (NCI-H23 lung): 31.2 µM
- TGI (SF-268 CNS): 36 µM
- TGI (DMS 273 small cell lung): 30.4 µM
- TGI (SK-MEL-28 melanoma): 28.9 µM
- TGI (DMS 114 small cell lung): 22.7 µM
- TGI (SNB-78 CNS): 36.1 µM
- TGI (M19-MEL melanoma): 24.8 µM
- TGI (MALME-3M melanoma): 25.5 µM
- TGI (DLD-1 colon): 23.7 µM
- TGI (KM12 colon): 24 µM
- TGI (HCC-2998 colon): 29.5 µM
- TGI (NCI-H460 lung): 27.9 µM

Structure (SMILES): COC1C(O)CC(OC2CC(Oc3cc4cc5c(c(O)c4c(O)c3C)C(=O)[C@@H](OC3CC(OC4CC(OC6CC(C)(O)C(OC(C)=O)C(C)O6)C(O)C(C)O4)C(O)C(C)O3)[C@H]([C@H](OC)C(=O)[C@@H](O)[C@@H](C)O)C5)OC(C)C2OC(C)=O)OC1C (stereo partly drawn)
- TGI (MDA-N): 0.000192 µM and < 0.0107 µM
- GI50 (P388/ADR leukemia): 0.106 µM
- TGI (P388/ADR leukemia): 9.49 µM and 8.82 µM
- GI50 (786-0 renal): 0.000213 µM
- GI50 (TK-10 renal): < 0.0155 µM
- TGI (TK-10 renal): 0.0033 µM
- GI50 (M14 melanoma): 0.0189 nM
- TGI (M14 melanoma): 0.000105 µM
- GI50 (HOP-18 NSCLC): 0.0164 nM
- GI50 (T-47D breast): 0.0356 nM
- TGI (T-47D breast): 0.00182 µM and < 0.215 µM
- TGI (MDA-MB-435): 0.000167 µM
- GI50 (MDA-MB-231 breast): 0.0101 µM
- TGI (MDA-MB-231 breast): 0.000467 µM and < 0.0234 µM
- GI50 (SR leukemia): 0.0252 nM
- TGI (SR leukemia): 0.000152 µM
- GI50 (DMS 114 small cell lung): 0.00328 µM
- TGI (BT-549 breast): 0.0597 nM
